Reference: PMC4258814, “Differences between murine arylamine N-acetyltransferase type 1 and human arylamine N-acetyltransferase type 2 defined by substrate specificity and inhibitor binding” (BMC Pharmacology & Toxicology, 2014)
Residue numbers refer to the chain shown, from its start. Marks after values point to notes of the source that are not given here.

How the values were obtained:
(HUMAN)NAT2*4 [1] = target: T1, (HUMAN)NAT2*4 (Homo sapiens, UniProt P11245); assay: Inhibition of NAT activity (AcCoA hydrolysis rate); type: biochemical; details: AcCoA 400 μM, substrate 2-aminofluorene, 5% DMSO
T1 construct: made in house
T1 sequence (P11245 1-290): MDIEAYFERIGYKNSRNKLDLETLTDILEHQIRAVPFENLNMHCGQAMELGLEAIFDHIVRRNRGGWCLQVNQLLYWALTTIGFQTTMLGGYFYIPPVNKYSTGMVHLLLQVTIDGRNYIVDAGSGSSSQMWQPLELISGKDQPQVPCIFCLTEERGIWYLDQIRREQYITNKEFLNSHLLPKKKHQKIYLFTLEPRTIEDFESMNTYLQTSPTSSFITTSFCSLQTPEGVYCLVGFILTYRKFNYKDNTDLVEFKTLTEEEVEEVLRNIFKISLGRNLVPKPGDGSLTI
From the text: (§1) The final concentration of dimethyl sulphoxide (DMSO) in reaction mixes was 5% (v/v). IC50 values were estimated using a dose–response-based regression model in Kyplot® software. Curves were fitted by least squares analysis with confidence limits of 95%.

(MOUSE)NAT1*1 [2] = target: T2, (MOUSE)NAT1*1 (Mus musculus, UniProt P50294); assay: Inhibition of NAT activity (AcCoA hydrolysis rate); type: biochemical; details: AcCoA 400 μM, substrate 5AS, 5% DMSO
T2 construct: The open reading frame of (MOUSE)Nat1*1 [32] was subcloned; hexa-His (N, cleaved yes); made in house; host or cells: Escherichia coli BL21(DE3)CodonPlus-RIL
T2 sequence (P50294 1-290): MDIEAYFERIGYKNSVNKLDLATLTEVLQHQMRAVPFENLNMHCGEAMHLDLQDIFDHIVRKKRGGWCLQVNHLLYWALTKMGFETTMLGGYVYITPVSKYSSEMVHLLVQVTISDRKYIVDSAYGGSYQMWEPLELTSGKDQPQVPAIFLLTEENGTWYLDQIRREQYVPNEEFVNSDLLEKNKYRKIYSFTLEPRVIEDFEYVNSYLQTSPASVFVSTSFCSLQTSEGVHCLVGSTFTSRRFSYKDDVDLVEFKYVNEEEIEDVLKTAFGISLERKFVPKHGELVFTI
From the text: as §1

(MOUSE)NAT2_F125S [3] = target: T3, (MOUSE)NAT2_F125S (Mus musculus, UniProt P50295, F125S); assay: Inhibition of NAT activity (AcCoA hydrolysis rate); type: biochemical; details: AcCoA 400 μM, substrate 5AS, 5% DMSO
T3 construct: His tag (only implied by Ni-NTA purification) (cleaved yes); made in house; host or cells: E. coli Rosetta(DE3)pLysS
T3 sequence (P50295 1-290 F125S): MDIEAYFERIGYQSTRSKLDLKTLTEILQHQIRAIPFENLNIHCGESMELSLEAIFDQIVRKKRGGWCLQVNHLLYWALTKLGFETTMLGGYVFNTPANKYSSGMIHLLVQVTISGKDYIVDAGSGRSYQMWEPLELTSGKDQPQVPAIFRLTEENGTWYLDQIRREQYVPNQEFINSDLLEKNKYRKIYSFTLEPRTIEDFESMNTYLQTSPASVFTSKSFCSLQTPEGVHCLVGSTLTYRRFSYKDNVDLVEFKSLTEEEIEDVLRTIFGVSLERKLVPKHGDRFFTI
From the text: as §1

(HUMAN)NAT1*4 [4] = system: (HUMAN)NAT1*4; design: method as in PMID 23940600; details: read-out: IC50 with naphthoquinone 1, AcCoA 400 μM, substrate 4ABA, ref [25]; cited from earlier work
(MOUSE)NAT2*1 [5] = target: T4, (MOUSE)NAT2*1 (Mus musculus, UniProt P50295); design: method as in PMID 23940600, PMID 20170182; details: read-out: IC50 with naphthoquinone 1, AcCoA 400 μM, substrate 4ABA, ref [25], [24]; cited from earlier work
T4 construct: made in house
T4 sequence (P50295 1-290): T3 sequence (P50295 1-290 F125S) with S125F

(MESAU)NAT2*1 [6] = system: (MESAU)NAT2*1; design: method as in PMID 24758871; details: read-out: IC50 with naphthoquinone 1, AcCoA 400 μM, substrate 4ABA, ref [26]; cited from earlier work
(MOUSE)NAT2*1 [7] = target: T4, (MOUSE)NAT2*1; design: method as in PMID 23940600, PMID 20170182; details: in presence of (MOUSE)NAT2*1; ref [25], [24]; cited from earlier work
(MOUSE)NAT2_R127G [8] = target: T5, (MOUSE)NAT2_R127G (Mus musculus, UniProt P50295, R127G); design: method as in PMID 23940600; details: in presence of (MOUSE)NAT2_R127G; ref [25]; cited from earlier work
T5 construct: made in house
T5 sequence (P50295 1-290 R127G): T3 sequence (P50295 1-290 F125S) with S125F, R127G

(MOUSE)NAT2_R127L [9] = target: T6, (MOUSE)NAT2_R127L (Mus musculus, UniProt P50295, R127L); design: method as in PMID 23940600; details: in presence of (MOUSE)NAT2_R127L; ref [25]; cited from earlier work
T6 construct: made in house
T6 sequence (P50295 1-290 R127L): T3 sequence (P50295 1-290 F125S) with S125F, R127L

(MOUSE)NAT1*1 [10] = target: T2, (MOUSE)NAT1*1; design: method as in PMID 20170182; details: in presence of (MOUSE)NAT1*1; ref [24]; cited from earlier work
(HUMAN)NAT2*4 [11] = target: T1, (HUMAN)NAT2*4; design: method as in PMID 23940600; details: in presence of (HUMAN)NAT2*4; ref [25]; cited from earlier work
(MOUSE)NAT2*1 [12] = target: T4, (MOUSE)NAT2*1; assay: Substrate specific N-acetylation profile; type: biochemical; details: substrate 500 μM, relative to substrate with highest specific activity (100%), mean of 3 ± SD
(MOUSE)NAT2_F125S [13] = target: T3, (MOUSE)NAT2_F125S; assay: Substrate specific N-acetylation profile; type: biochemical; details: (MOUSE)NAT2 F125S; substrate 500 μM; relative to substrate with highest specific activity (100%); mean of 3 ± SD
(MOUSE)NAT2_R127G [14] = target: T5, (MOUSE)NAT2_R127G; assay: Substrate specific N-acetylation profile; type: biochemical; details: (MOUSE)NAT2 R127G; substrate 500 μM; relative to substrate with highest specific activity (100%); mean of 3 ± SD
(MOUSE)NAT2_R127L [15] = target: T6, (MOUSE)NAT2_R127L; assay: Substrate specific N-acetylation profile; type: biochemical; details: (MOUSE)NAT2 R127L; substrate 500 μM; relative to substrate with highest specific activity (100%); mean of 3 ± SD
(MOUSE)NAT1*1 [16] = target: T2, (MOUSE)NAT1*1; assay: Substrate specific N-acetylation profile; type: biochemical; details: substrate 500 μM, relative to substrate with highest specific activity (100%), mean of 3 ± SD
(HUMAN)NAT1*4 [17] = system: (HUMAN)NAT1*4; design: method as in PMID 15627487, PMID 18280460; details: substrate 500 μM, relative to substrate with highest specific activity (100%), mean of 3 ± SD, ref [8], [22]; cited from earlier work
(MESAU)NAT2*1 [18] = system: (MESAU)NAT2*1; design: method as in PMID 15627487, PMID 18280460; details: substrate 500 μM, relative to substrate with highest specific activity (100%), mean of 3 ± SD, ref [8], [22]; cited from earlier work
(HUMAN)NAT2*4 [19] = target: T1, (HUMAN)NAT2*4; design: method as in PMID 15627487, PMID 18280460; details: substrate 500 μM, relative to substrate with highest specific activity (100%), mean of 3 ± SD, ref [8], [22]; cited from earlier work
[20] = ref [56]–[61]; cited from earlier work

IC50 ((HUMAN)NAT2*4 [1]) [µM]	IC50 ((MOUSE)NAT1*1 [2]) [µM]	IC50 ((MOUSE)NAT2_F125S [3]) [µM]	% specific activity values ((MOUSE)NAT2*1 [12]) [%]	% specific activity values ((MOUSE)NAT2_F125S [13]) [%]	% specific activity values ((MOUSE)NAT2_R127G [14]) [%]	% specific activity values ((MOUSE)NAT2_R127L [15]) [%]	% specific activity values ((MOUSE)NAT1*1 [16]) [%]	Compound	IC50 ((HUMAN)NAT1*4 [4]) [µM]	IC50 ((MOUSE)NAT2*1 [5]) [µM]	IC50 ((MESAU)NAT2*1 [6]) [µM]	λ max of naphthoquinone 1 ((MOUSE)NAT2*1 [7])	λ max of naphthoquinone 1 ((MOUSE)NAT2_R127G [8])	λ max of naphthoquinone 1 ((MOUSE)NAT2_R127L [9])	λ max of naphthoquinone 1 ((MOUSE)NAT1*1 [10])	λ max of naphthoquinone 1 ((HUMAN)NAT2*4 [11])	% specific activity values ((HUMAN)NAT1*4 [17]) [%]	% specific activity values ((MESAU)NAT2*1 [18]) [%]	% specific activity values ((HUMAN)NAT2*4 [19]) [%]	pKa(H) (NH3^+) [20]
> 100	130	68.7	–	–	–	–	–	Cc1cc(C)cc(NC2=C(NS(=O)(=O)c3ccccc3)C(=O)c3ccccc3C2=O)c1 [naphthoquinone 1, N-(3-(3,5-dimethylphenylamino)-1,4-dioxo-1,4-dihydronaphthalen-2-yl)benzenesulphonamide]	5.3	1.3	89	625^a,b nm	498^a nm	498^a nm	498^b nm	498^a nm	–	–	–	–
–	–	–	72 ± 3	69 ± 2	97 ± 1	74 ± 8	28 ± 3	Nc1ccc(I)cc1 [4IA, 4-iodoaniline]	–	–	–	–	–	–	–	–	63 ± 1	81 ± 1	65 ± 2	3.8 (NH3^+)
